The numbers were not newly measured in patent US20060057203A1 (priority 2002, published 2006), which cites them from elsewhere.

With `NC(=O)N1c2ccccc2CC(=O)c2ccccc21` [oxcarbazepine], the solubility in water entry is given as “practically insoluble”.
